# Where no end group is shown, it is not given here.
# What was measured:
# PC12 cells = assay: Neurite growth on PC12 cells; assay type: cell-based
# Protocol: Biological Activity of Fragments on PC12 cells: The trypsin digested fragments in various concentrations were tested for neurite growth on PC12 cells. Tissue culture plates having 24 wells were seeded with 10^5 PC12 cells in serum free Dulbeco Modified Eagle's medium (DMEM). The results were read after 96 hours for neurite outgrowth.
# [1] = Mitogenic activity of synthetic constructs (deletion series); assay type: cell-based; conditions: constructs of 5 to 21 amino acids compared
# Description: Several synthetic constructs were made based on portions of this sequence by deleting one amino acid from one terminal at a time. In this manner, several constructs consisting of 5 to 21 amino acids were made and tested for mitogenic activity. […] […] This peptide is designated hereinafter as Oxynor peptide -10.
# 4 mm punched wounds = 4 mm punched wounds on the back of mice; assay type: in vivo
# Protocol: Experimentally produced 4 mm punched wounds on the back of mice were treated with β taipoxin to compare with Oxynor peptide-10 treatment.
# [2] = tested on: 6 mm ischemic skin wounds; assay: 6 mm ischemic skin wounds in rat; assay type: in vivo; conditions: 100 μg/ml in hydrogel vehicle once daily; days 7 and 10
# Protocol: Natural β-taipoxin and Oxynor peptide-10 were tested against each other in vivo at a concentration of 100 μg/ml in hydrogel vehicle applied once daily to help heal 6 mm ischemic skin wounds in rat. At days 7 and 10 the wounds treated with Oxynor peptide-10 were about 15% smaller in area than the wounds treated with natural β-taipoxin.
# Anti-β-taipoxin = assay: Immunological reaction with anti-β-taipoxin; assay type: binding, mice
# Description: This proves that Oxynor peptide-10 is an integral part of the natural β-taipoxin.
Substance,"neurite growth of trypsin digest fragments (PC12 cells; 10^5 PC12 cells, serum free DMEM, read after 96 hours)",neurite growth on PC12 cells (PC12 cells; similar concentrations (2 to 5) in serum-free medium),mitogenic activity [1],"closure of wounds (4 mm punched wounds; after six days, PBS controls open)","histological examination of the skin around the wounds (4 mm punched wounds; mice, treated wounds)",wound area smaller than wounds treated with natural β-taipoxin [2],immunological reaction with anti-β-taipoxin made in mice (Anti-β-taipoxin)
KGGSLLNFANLIENDVPIDHM [Oxynor peptide-21],most neurite growth at the lowest concentration,–,–,–,–,–,–
SLLNFANLIE [Oxynor peptide-10],–,produced neurite growth,most active,complete closure of the wounds,epidermis almost like normal skin,about 15%,reacted immunologically
Ser Leu Leu Asn Phe (SLLNF; SYNTHESIZED. CORRESPONDS TO POSITIONS 4-8 ABOVE.) [Oxynor peptide-5],–,–,"active, but less active",–,–,–,–
